Counter-ions that a name gives are not always drawn.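 Test compounds were applied to cells in 96-well plates for 48 hours at 5 doses. GI50 is the concentration that inhibits growth by half.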 Activity calls are given as the source filed them. No stated cut-off is given here; in the data, active = GI50 up to about 1.1 µM and inactive = higher.
Tests used:
Experiment in all cases: DTP human tumour cell line panel, 48 h
CCRF-CEM = tested on: CCRF-CEM
SW-620 = tested on: SW-620
K562 = tested on: K562
SR = tested on: SR
SK-MEL-2 = tested on: SK-MEL-2
SK-MEL-28 = tested on: SK-MEL-28
ACHN = tested on: ACHN
LOX IMVI = tested on: LOX IMVI
OVCAR-8 = tested on: OVCAR-8
SF-268 = tested on: SF-268
NCI-H226 = tested on: NCI-H226
U-251 = tested on: U-251
HCT-116 = tested on: HCT-116
EKVX = tested on: EKVX
OVCAR-3 = tested on: OVCAR-3
MCF7 = tested on: MCF7
PC-3 = tested on: PC-3
T47D = tested on: T47D
Hs-578T = tested on: Hs-578T

Row | Structure (SMILES) | GI50 (CCRF-CEM) | GI50 (SW-620) | GI50 (K562) | GI50 (SR) | GI50 (SK-MEL-2) | GI50 (SK-MEL-28) | GI50 (ACHN) | GI50 (LOX IMVI) | GI50 (OVCAR-8) | GI50 (SF-268) | GI50 (NCI-H226) | GI50 (U-251) | GI50 (HCT-116) | GI50 (EKVX) | GI50 (OVCAR-3) | GI50 (MCF7) | GI50 (PC-3) | GI50 (T47D) | GI50 (Hs-578T)
1 | C=CCNC(=S)N1c2ccccc2NC(=O)CC1C (stereo not drawn) | > 100 µM (inactive) | > 100 µM (inactive) | > 100 µM (inactive) | > 100 µM (inactive) | > 100 µM (inactive) | > 100 µM (inactive) | > 100 µM (inactive) | > 100 µM (inactive) | > 100 µM (inactive) | > 100 µM (inactive) | > 100 µM (inactive) | > 100 µM (inactive) | > 100 µM (inactive) | > 100 µM (inactive) | > 100 µM (inactive) | – | – | – | –
2 | N=C(N)N/N=C(/CCN1CCCC1)CC(c1ccccc1)c1c(O)c2ccccc2oc1=O (stereo not drawn) | > 10 µM (inactive) | > 100 µM (inactive) | > 100 µM (inactive) | – | > 100 µM (inactive) | > 100 µM (inactive) | > 100 µM (inactive) | > 100 µM (inactive) | – | > 100 µM (inactive) | > 100 µM (inactive) | – | > 100 µM (inactive) | > 100 µM (inactive) | > 100 µM (inactive) | – | – | – | –
3 | N#CC(C(=O)C(=O)Nc1ccc(Cl)c(Cl)c1)c1ccc(Cl)cc1 (stereo not drawn) | 48.1 µM (inactive) | 16 µM (inactive) | 23.4 µM (inactive) | 51.9 µM (inactive) | 34.2 µM (inactive) | > 100 µM (inactive) | 83 µM (inactive) | 16.7 µM (inactive) | > 100 µM (inactive) | > 100 µM (inactive) | > 100 µM (inactive) | 40.8 µM (inactive) | 23.6 µM (inactive) | > 100 µM (inactive) | 37.7 µM (inactive) | – | – | – | –
4 | Cc1[nH]c2ccccc2c1CC/C(=N\Nc1ccccc1)c1ccccc1 | > 100 µM (inactive) | > 100 µM (inactive) | > 100 µM (inactive) | – | > 100 µM (inactive) | > 100 µM (inactive) | > 100 µM (inactive) | – | > 100 µM (inactive) | – | > 100 µM (inactive) | > 100 µM (inactive) | > 100 µM (inactive) | > 100 µM (inactive) | > 100 µM (inactive) | – | – | – | –
5 | Cc1ccc(NC(=O)SCCC(=O)O)cc1NC(=O)SCCC(=O)O | > 100 µM (inactive) | > 100 µM (inactive) | > 100 µM (inactive) | > 100 µM (inactive) | > 100 µM (inactive) | > 100 µM (inactive) | > 100 µM (inactive) | > 100 µM (inactive) | > 100 µM (inactive) | > 100 µM (inactive) | > 100 µM (inactive) | > 100 µM (inactive) | > 100 µM (inactive) | > 100 µM (inactive) | > 100 µM (inactive) | – | – | – | –
6 | CCNC(=O)O/N=C1/C=C2CC[C@@H]3C(CC[C@@]4(C)C3CC[C@@H]4OC(=O)NCC)[C@@]2(C)CC1 (stereo partly drawn) | – | 3.02 µM (inactive) | 2.87 µM (inactive) | – | 2.21 µM (inactive) | 3.32 µM (inactive) | 2.75 µM (inactive) | 3.32 µM (inactive) | 4.32 µM (inactive) | – | – | 2.42 µM (inactive) | 3.67 µM (inactive) | 4.99 µM (inactive) | – | – | – | – | –
7 | CCOc1c(Cc2ccccc2)c(=O)n2c3ccccc3n3c(=O)n(C)c(=O)c1c23 | – | > 100 µM (inactive) | – | > 100 µM (inactive) | > 100 µM (inactive) | > 100 µM (inactive) | > 100 µM (inactive) | > 100 µM (inactive) | > 100 µM (inactive) | > 100 µM (inactive) | – | > 100 µM (inactive) | > 100 µM (inactive) | > 100 µM (inactive) | > 100 µM (inactive) | – | – | – | –
8 | CCCCCCCCCOC(=S)NCCCCC | 22.9 µM (inactive) | 32.7 µM (inactive) | 27 µM (inactive) | 20.5 µM (inactive) | – | 38.7 µM (inactive) | 29.1 µM (inactive) | 15.6 µM (inactive) | 38.7 µM (inactive) | 37.2 µM (inactive) | – | 21.7 µM (inactive) | 22.2 µM (inactive) | 35.2 µM (inactive) | – | – | – | – | –
9 | Cn1c(=O)c2nc(-c3ccc(Cl)cc3)oc2n(C)c1=O | > 100 µM (inactive) | > 100 µM (inactive) | > 100 µM (inactive) | > 100 µM (inactive) | > 100 µM (inactive) | > 100 µM (inactive) | > 100 µM (inactive) | > 100 µM (inactive) | > 100 µM (inactive) | > 100 µM (inactive) | > 100 µM (inactive) | > 100 µM (inactive) | > 100 µM (inactive) | > 100 µM (inactive) | > 100 µM (inactive) | – | – | – | –
10 | CN(C)CCOC(=O)COc1ccc(Cl)cc1 [CENTROPHENOXINE HYDROCHLORIDE] | > 100 µM (inactive) | > 100 µM (inactive) | > 100 µM (inactive) | > 100 µM (inactive) | > 100 µM (inactive) | > 100 µM (inactive) | > 100 µM (inactive) | > 100 µM (inactive) | > 100 µM (inactive) | > 100 µM (inactive) | > 100 µM (inactive) | > 100 µM (inactive) | > 100 µM (inactive) | > 100 µM (inactive) | > 100 µM (inactive) | 38.8 µM (inactive) | > 100 µM (inactive) | > 100 µM (inactive) | –
11 | CCN(CC)C(=O)c1cc([N+](=O)[O-])c(=O)n2c1[nH]c1ccccc12 | > 100 µM (inactive) | > 100 µM (inactive) | > 100 µM (inactive) | > 100 µM (inactive) | – | > 100 µM (inactive) | > 100 µM (inactive) | > 100 µM (inactive) | > 100 µM (inactive) | > 100 µM (inactive) | > 100 µM (inactive) | – | > 100 µM (inactive) | > 100 µM (inactive) | > 100 µM (inactive) | – | > 100 µM (inactive) | > 100 µM (inactive) | > 100 µM (inactive)
12 | OC[C@@H]1CC#C/C=C\C#CC[C@@H]1CO | – | – | > 100 µM (inactive) | – | > 100 µM (inactive) | > 100 µM (inactive) | – | – | > 100 µM (inactive) | < 0.01 µM (active) | – | > 100 µM (inactive) | > 100 µM (inactive) | > 100 µM (inactive) | > 100 µM (inactive) | – | – | – | –
13 | Cc1ccc(S(=O)OC2c3ccccc3Cc3ccccc32)cc1 (stereo not drawn) | – | 22.5 µM (inactive) | 17.7 µM (inactive) | 21.8 µM (inactive) | – | 19.2 µM (inactive) | 22.4 µM (inactive) | 14.4 µM (inactive) | 15.6 µM (inactive) | 20.7 µM (inactive) | 18.5 µM (inactive) | 27.6 µM (inactive) | 17.1 µM (inactive) | 18.6 µM (inactive) | 21.5 µM (inactive) | – | – | – | –
14 | O=c1cccccc1NCCCCCCCNc1cccccc1=O | 13.4 µM (inactive) | 52 µM (inactive) | 17.8 µM (inactive) | 22.1 µM (inactive) | 49 µM (inactive) | – | 26.7 µM (inactive) | 12.1 µM (inactive) | 31.6 µM (inactive) | 43.5 µM (inactive) | 34.5 µM (inactive) | > 10 µM (inactive) | 37.2 µM (inactive) | 20.4 µM (inactive) | 24.5 µM (inactive) | – | – | – | –
15 | COC(=O)NN1C(C)=C(C(=O)OC)C2(C#N)C(C(=O)OC)=C(C)N(NC(=O)OC)C12N (stereo not drawn) | > 100 µM (inactive) | > 100 µM (inactive) | > 100 µM (inactive) | – | > 100 µM (inactive) | > 100 µM (inactive) | > 100 µM (inactive) | > 100 µM (inactive) | > 100 µM (inactive) | > 100 µM (inactive) | > 100 µM (inactive) | > 100 µM (inactive) | > 100 µM (inactive) | > 100 µM (inactive) | – | – | – | – | –
16 | Cc1ccc(Oc2ccccc2N)cc1 | 7.03 µM (inactive) | 45.9 µM (inactive) | 37.8 µM (inactive) | 9.31 µM (inactive) | 51.5 µM (inactive) | 18.2 µM (inactive) | – | 23 µM (inactive) | 79.3 µM (inactive) | 46.1 µM (inactive) | – | 4.43 µM (inactive) | 9.51 µM (inactive) | 37.5 µM (inactive) | 15.8 µM (inactive) | – | – | – | –
17 | CCOC(=O)[C@@H]1ON2O[C@@H](OC3CCCCC3c3ccccc3)C[C@H]3OC(=O)[C@@H]1C32 (stereo partly drawn) | 0.792 µM (active) | > 100 µM (inactive) | > 100 µM (inactive) | 97.9 µM (inactive) | – | – | > 100 µM (inactive) | > 100 µM (inactive) | > 100 µM (inactive) | > 100 µM (inactive) | 93.8 µM (inactive) | > 100 µM (inactive) | > 100 µM (inactive) | > 100 µM (inactive) | > 100 µM (inactive) | > 100 µM (inactive) | – | > 100 µM (inactive) | > 100 µM (inactive)
18 | O=c1oc2c3ccc4ccccc4c3n(CCN3CCCCC3)c2c2ccccc12 | 9.35 µM (inactive) | 18.8 µM (inactive) | 15.1 µM (inactive) | 3.21 µM (inactive) | 26.5 µM (inactive) | > 71.6 µM (inactive) | 31.6 µM (inactive) | 31.1 µM (inactive) | 19 µM (inactive) | 31.4 µM (inactive) | – | 17.7 µM (inactive) | 31.8 µM (inactive) | > 87.5 µM (inactive) | 18.5 µM (inactive) | – | – | – | –
19 | C/N=C(\SC)N(C)c1nc(=[N+](C)C)ss1.[O-][Cl+3]([O-])([O-])[O-] | 4.17 µM (inactive) | 31.6 µM (inactive) | 10.7 µM (inactive) | 56 µM (inactive) | > 100 µM (inactive) | > 100 µM (inactive) | > 100 µM (inactive) | > 100 µM (inactive) | > 100 µM (inactive) | > 100 µM (inactive) | > 100 µM (inactive) | > 100 µM (inactive) | > 100 µM (inactive) | 45.3 µM (inactive) | – | – | – | – | –
20 | CC1C(=O)N(C)C2(CO)C(=O)O[C@H](C)C12O (stereo partly drawn) | – | – | > 100 µM (inactive) | > 100 µM (inactive) | > 100 µM (inactive) | > 100 µM (inactive) | – | – | > 100 µM (inactive) | > 100 µM (inactive) | – | > 100 µM (inactive) | > 100 µM (inactive) | > 100 µM (inactive) | > 100 µM (inactive) | – | – | – | –
